{"source": "patent US20240124515A1", "about": "“ORALLY ACTIVE LEUKEMIA INHIBITORY FACTOR (LIF) ANTAGONISTS FOR THE TREATMENT OF CANCER” (Evestra, Inc., priority 2021, published 2024)", "key": {"LIF/LIFR": {"system": "LIF/LIFR", "conditions": "background; cited from earlier work"}, "[1]": {"assay": "PK study, oral bioavailability in rats", "type": "in vivo, Sprague Dawley rats", "conditions": "for bioavailability: Sprague Dawley, rat, plasma, po", "excerpt": "For example, the oral bioavailability can be determined by the formula (1):\nF=100*(AUCpo*Div/AUCiv*Dpo) (1)\nwhere: F is bioavailability; AUCpo is dose-corrected area under curve of non-intravenous oral drug; Div is the intravenous dose; AUCiv is the area under the curve intravenous; and Dpo is the oral dose."}, "other steroid receptors": {"system": "other steroid receptors", "assay": "Binding to other steroid receptors", "conditions": "Table 1"}, "xenograft and PDX models": {"system": "xenograft and PDX models", "conditions": "background; cited from earlier work"}, "[2]": {"conditions": "rodent pharmacokinetic (PK) studies"}, "MCF7/LIF cells": {"system": "MCF7/LIF cells", "assay": "Effect on MCF7 cells with artificial LIF expression (FIG. 1)", "type": "cell-based", "conditions": "artificial expression of LIF in MCF7 cells", "method": "(§1) The artificial expression of LIF in MCF7 cells (MCF7/LIF) made those cells vulnerable to LIF inhibitors (FIG. 1) such as compound 5 (EC905) and compound 13 (EC915)\n(§2) In order to identify the mechanism of action of EC914, we checked cytotoxicity of these compounds in various cells lines and derived IC50 values. Briefly, 5×10^3 cells were seeded in 96-well plates and incubated with compounds (0.0001-10 μmol/L) or dimethyl sulfoxide (DMSO; 0.02% v/v) for 24, 48, and 72 hours at 37° C. and cell viability was measured using a Fluoroscan plate reader (Nair et al. Estrogen receptor-β activation in combination with letrozole blocks the growth of breast cancer tumors resistant to letrozole therapy. Steroids. 2011 July; 76(8):792-6)."}, "HESE cells": {"system": "HESE cells", "assay": "Caspase-3/7 apoptosis assay (Caspase-Glo)", "type": "cell-based", "conditions": "Caspase-3/7 activity", "method": "Caspase-3/7 activity in HESE cells was measured using Caspase-Glo assay kit (Promega), as described before (Bhaskaran et al, 2013). Briefly, cells were homogenized in homogenization buffer (25 mmol/L HEPES, pH 7.5, 5 mmol/L MgCl2, and 1 mmol/L EGTA), protease inhibitors, and the homogenate was centrifuged at 13,000 rpm at 4° C. for 15 minutes. To 10 μL of the supernatant containing protein was added to an equal volume of the assay reagent and incubated at room temperature for 2 hours. The luminescence was measured using a luminometer."}, "pSTAT3": {"system": "pSTAT3", "assay": "Western blot of STAT3 phosphorylation (FIG. 2)", "type": "cell-based", "method": "It is believed that EC914 binds directly to LIFR and blocks LIF signaling. Binding of EC914 to LIFR was measured by microscale thermophoresis (MST). The binding kD was 174 nM (FIG. 3).\nIn brief, MDA-MB-231/BT549 cells were treated with compounds for 3 days at different concentrations (10, 100 nM) and cell lysates were separated by 8% SDS-PAGE and transferred to polyvinylidene difluoride membranes. Membranes were then incubated with primary antibodies including phosphorylated and/or total pSTAT3. After overnight incubation at 4° C., membranes were incubated with secondary antibodies. Immunoreactive bands were then visualized by the enhanced chemiluminescence (ECL) detection system (GE healthcare."}, "[3]": {"system": "triple negative breast cancer cells", "assay": "Antiproliferative activity in TNBC cells", "type": "cell-based", "method": "as §1, §2"}, "[4]": {"system": "NE-1.8 (neuro endocrine-like) prostate cancer cell line", "assay": "Calcein AM fluorescent dye-based cell viability assay, NE-1.8 cells", "conditions": "96 hours, 50 nM to 250 nm EC914", "method": "In one test, NE-1.8 (neuro endocrine-like) prostate cancer cell line was treated with compound 12 (EC914).\nAfter 96 hours, the cell viability was observed using Calcein AM fluorescent dye-based cell viability assay. More than 50-80% of cell growth inhibition was observed from 50 nM to 250 nm concentration of EC914 compared to vehicle control. Similar growth inhibition trend was observed upon treatment with LIF inhibitor on the C42B prostate cancer cell line at 48 hrs."}, "[5]": {"system": "STAT1, STAT3, AKT, ERK, Myc, and tCyclinD1 proteins", "assay": "Western blot of cellular signaling in PCa cells (FIG. 7A)", "type": "cell-based", "conditions": "no change in total proteins", "method": "(§3) In this study, the cellular signaling disrupted upon EC 914 treatment was analyzed. […] Thus, cancer stemness enrichment upon DTX treatment might be abolished by LIF/LIFR signaling disruption through EC914 inhibitor."}, "[6]": {"system": "murine and human PCa cells", "assay": "Viability and Incucyte Cytotox assay of PCa cells (FIG. 6)", "type": "cell-based", "excerpt": "FIG. 6A depicts a line graph showing significant decline in the viability of murine and human PCa cells upon treatment with EC914 and/or Docetaxel."}, "[7]": {"system": "MDR1, CD44, Sox2, ALDH1, and CD133", "assay": "Western blot of CSC marker expression in PCa (FIG. 7C)", "type": "cell-based", "method": "as §3"}, "[8]": {"system": "22Rv1 and cE2 mouse syngeneic cells", "assay": "Prostate cancer tumor models in vivo (FIG. 9)", "conditions": "22Rv1 and cE2 subcutaneous tumors in athymic nude mice", "method": "22Rv1 and cE2 mouse syngeneic cells were subcutaneously implanted in athymic nude mice (0.75×10^6/mice). Two weeks after post-implantation, mice were randomized into four groups. Group 1 mice received saline, whereas group 2 and group 3 mice received EC 914 (every alternative day) or DTX (once in 3 days) alone. Finally, group 4 mice were administered with both EC 914 and DTX. […] Based on this rationale, it is believed that LIFR is overexpressed in response to DTX treatment and induces resistance, and enriches the CSC population in metastatic CRPC."}, "LIFR": {"target": "T1, LIFR (Homo sapiens, UniProt P42702)", "T1 sequence (P42702 45-1097)": "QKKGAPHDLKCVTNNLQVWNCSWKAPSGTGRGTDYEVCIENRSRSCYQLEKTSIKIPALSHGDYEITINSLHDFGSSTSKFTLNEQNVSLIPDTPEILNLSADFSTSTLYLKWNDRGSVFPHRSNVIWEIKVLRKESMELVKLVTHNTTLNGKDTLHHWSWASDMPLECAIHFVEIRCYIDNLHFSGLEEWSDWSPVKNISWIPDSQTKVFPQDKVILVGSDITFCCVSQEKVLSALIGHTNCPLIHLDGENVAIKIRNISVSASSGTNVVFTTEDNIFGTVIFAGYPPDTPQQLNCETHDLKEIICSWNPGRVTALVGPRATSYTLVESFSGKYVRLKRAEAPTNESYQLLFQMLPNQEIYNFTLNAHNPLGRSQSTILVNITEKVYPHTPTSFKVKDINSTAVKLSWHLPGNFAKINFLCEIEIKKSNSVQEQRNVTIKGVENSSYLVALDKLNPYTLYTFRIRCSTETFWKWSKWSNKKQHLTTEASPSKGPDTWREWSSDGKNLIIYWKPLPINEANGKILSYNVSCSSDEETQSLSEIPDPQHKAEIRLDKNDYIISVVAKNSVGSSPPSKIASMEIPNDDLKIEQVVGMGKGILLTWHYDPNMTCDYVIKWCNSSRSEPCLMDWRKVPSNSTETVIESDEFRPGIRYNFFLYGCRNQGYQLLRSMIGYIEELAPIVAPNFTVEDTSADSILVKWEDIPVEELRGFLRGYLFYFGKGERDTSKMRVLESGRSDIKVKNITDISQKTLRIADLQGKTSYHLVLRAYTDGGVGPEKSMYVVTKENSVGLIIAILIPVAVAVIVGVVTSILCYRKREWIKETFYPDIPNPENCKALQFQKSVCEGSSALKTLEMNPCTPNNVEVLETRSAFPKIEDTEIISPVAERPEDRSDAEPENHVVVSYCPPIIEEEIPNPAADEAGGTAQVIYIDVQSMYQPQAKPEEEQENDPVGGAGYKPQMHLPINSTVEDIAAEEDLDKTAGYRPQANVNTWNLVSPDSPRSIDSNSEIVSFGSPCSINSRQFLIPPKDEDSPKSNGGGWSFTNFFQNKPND", "assay": "Microscale thermophoresis (MST) binding to LIFR", "method": "Binding of EC914 to LIFR was measured by microscale thermophoresis (MST)."}, "MDA-MB-231 xenograft": {"system": "MDA-MB-231 xenograft", "assay": "MDA-MB-231 tumor xenograft study", "type": "in vivo, athymic nude mice", "conditions": "TNBC mouse xenograft model, initial 3 doses of 10 mg/kg, oral, FIG. 5", "method": "Uniform suspensions of human breast cancer MDA-MB-231 cells (2×10^6) in 100 μL (0.02 carboxymethyl cellulose in phosphate buffered saline) were injected subcutaneously into the right and left flanks of 4- to 5-week-old female athymic nude mice (Charles River Laboratories). After 10 days, when the tumor […] reaches 100 mm^3, the mice were randomly allocated to 3 groups of each containing 6 animals. Group 1 served as the untreated control, groups 2 received EC914 orally at 10 mg/kg daily for 3 doses. All drug was formulated in a vehicle containing 58.5% Labrasol ALF, 22.5% Labrafil M, 1944 CS, 9% Capryol 90 and 10% water q.s. Tumors were allowed to reach palpability before drug intervention. Tumor size was measured every 3 days using digital Vernier Calipers and tumor volume was calculated using the ellipsoid formula [D×(d2)]/2, where D is the large diameter of the tumor and d represents the small diameter. On day 19, the mice were euthanized, and tumors were harvested for protein and gene expression studies since the control tumors reached maximum allowable size as the IACUC regulations (See FIG. 5)."}}, "note": "Read-outs that look alike come from different tables or passages of the source.", "data": [{"smiles": "C#CC(F)(F)[C@]1(O)CC[C@H]2[C@@H]3CCC4=CC(=O)CCC4=C3[C@@H](c3ccc(C4CC4)cc3)C[C@@]21C", "note": "[EC330]", "values": [{"measurement": "LIF/LIFR mediated proliferation and tumor growth", "setting": "LIF/LIFR", "value": "efficiently inhibited"}]}, {"smiles": "C#CC(F)(F)[C@]1(O)CC[C@H]2[C@@H]3CCC4=CC(=O)CCC4=C3[C@@H](c3ccc(-c4c(C)cc(C)cc4C)cc3)C[C@@]21C", "note": "[EC359, reference compound]", "values": [{"measurement": "oral bioavailability", "setting": "[1]; Table 1", "value": 16, "unit": "%"}, {"measurement": "Binding to other steroid receptors", "setting": "other steroid receptors", "value": "Low binding to PR"}, {"measurement": "efficacy in preclinical xenograft and PDX models", "setting": "xenograft and PDX models", "value": "good efficacy"}, {"measurement": "oral bioavailability", "setting": "[2]", "value": 16, "unit": "%"}]}, {"smiles": "C#CC(F)(F)[C@]1(O)CCC2C3CCC4=CC(=O)CCC4=C3[C@@H](c3cccc(-c4cccnc4)c3)C[C@@]21C", "note": "(stereo partly shown) [EC905]", "values": [{"measurement": "vulnerability of MCF7/LIF cells to LIF inhibitors", "setting": "MCF7/LIF cells", "value": "vulnerable"}]}, {"smiles": "C#CC(F)(F)[C@]1(O)CCC2C3CCC4=CC(=O)CCC4=C3[C@@H](c3cccc(C#N)c3C)C[C@@]21C", "note": "(stereo partly shown) [EC914]", "values": [{"measurement": "percent of apoptosis induced", "setting": "HESE cells", "value": "comparable to that of EC359"}, {"measurement": "bioavailability", "setting": "[1]; PK studies in Sprague Dawley rats, FIG. 4", "value": 87.9, "unit": "%"}, {"measurement": "bioavailability", "setting": "[1]; Table 1", "value": 87.9, "unit": "%"}, {"measurement": "STAT3 phosphorylation", "setting": "pSTAT3", "value": "reduced STAT3 phosphorylation"}, {"measurement": "antiproliferative activity", "setting": "[3]", "value": "potent antiproliferative activity"}, {"measurement": "cell growth inhibition compared to vehicle control", "setting": "[4]", "value": "50-80%"}, {"measurement": "Binding to other steroid receptors", "setting": "other steroid receptors", "value": "No"}, {"measurement": "phosphorylation of STAT1 and STAT3 and of AKT, ERK, Myc, tCyclinD1", "setting": "[5]", "value": "decreased"}, {"measurement": "cytotoxicity of Docetaxel in PCa", "setting": "[6]; 22Rv1 cells, Incucyte Cytotox assay, FIG. 6B", "value": "increases cytotoxicity of Docetaxel"}, {"measurement": "viability of PCa cells", "setting": "[6]; murine and human PCa cells, FIG. 6A", "value": "decreases viability"}, {"measurement": "key CSC marker expression (MDR1, CD44, Sox2, ALDH1, CD133)", "setting": "[7]", "value": "specifically decreases"}, {"measurement": "tumor growth", "setting": "[8]", "value": "inhibit tumor growth"}, {"measurement": "Kd", "setting": "LIFR; MST, FIG. 3, read-out: binding kD to LIFR", "value": 174, "unit": "nM"}, {"measurement": "Kd", "setting": "LIFR; Table 1, read-out: LIFR binding", "value": 175, "unit": "nM"}, {"measurement": "tumor burden", "setting": "MDA-MB-231 xenograft", "value": "reduced tumors burden"}]}, {"smiles": "C#CC(F)(F)[C@]1(O)CCC2C3CCC4=CC(=O)CCC4=C3[C@@H](c3ccc(C#N)cc3C)C[C@@]21C", "note": "(stereo partly shown) [EC915]", "values": [{"measurement": "vulnerability of MCF7/LIF cells to LIF inhibitors", "setting": "MCF7/LIF cells", "value": "vulnerable"}]}]}
